According to PMC7914897, “Cytotoxic Potential of a-Azepano- and 3-Amino-3,4-SeCo-Triterpenoids” (International Journal of Molecular Sciences, 2021):

Experiments:
[1] = test system: NIH 3T3 (non-malignant mouse fibroblasts); assay: SRB cytotoxicity assay, 72 h; assay type: cell-based; settings: NIH 3T3, 72 h, cut-off 30 µM
In short: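 Absorbance at 570 nm of SRB-stained cells gives % survival vs untreated controls, from which EC50 is determined. Treatment: 0–30 µM serial dilutions, 72 h, beginning 24 h post-seeding; DMSO ≤0.5%. TCA (10%) fixation, acetic acid wash.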

CNS cancer subpanel = assay: NCI-60 screen, subpanel; settings: Homo sapiens
Melanoma subpanel = assay: NCI-60 screen, subpanel; settings: Homo sapiens
HOP-92 (NSC lung cancer) = assay: NCI-60 screen (SRB, 48 h); settings: Homo sapiens
[2] = test system: NCI-H226 (NSC lung cancer); assay: NCI-60 screen (SRB, 48 h); settings: Homo sapiens
[3] = test system: NCI-H322M (NSC lung cancer); assay: NCI-60 screen (SRB, 48 h); settings: Homo sapiens
COLO 205 (Colon cancer) = assay: NCI-60 screen (SRB, 48 h); settings: Homo sapiens
HCC-2998 (Colon cancer) = assay: NCI-60 screen (SRB, 48 h); settings: Homo sapiens
HCT-116 (Colon cancer) = assay: NCI-60 screen (SRB, 48 h); settings: Homo sapiens
HCT-15 (Colon cancer) = assay: NCI-60 screen (SRB, 48 h); settings: Homo sapiens
SW-620 (Colon cancer) = assay: NCI-60 screen (SRB, 48 h); settings: Homo sapiens
SF-295 (CNS cancer) = assay: NCI-60 screen (SRB, 48 h); settings: Homo sapiens
SNB-19 (CNS cancer) = assay: NCI-60 screen (SRB, 48 h); settings: Homo sapiens
SNB-75 (CNS cancer) = assay: NCI-60 screen (SRB, 48 h); settings: Homo sapiens
MALME-3M (Melanoma) = assay: NCI-60 screen (SRB, 48 h); settings: Homo sapiens
M14 (Melanoma) = assay: NCI-60 screen (SRB, 48 h); settings: Homo sapiens
UACC-257 (Melanoma) = assay: NCI-60 screen (SRB, 48 h); settings: Homo sapiens
OVCAR-5 (Ovarian cancer) = assay: NCI-60 screen (SRB, 48 h); settings: Homo sapiens
A498 (Renal cancer) = assay: NCI-60 screen (SRB, 48 h); settings: Homo sapiens
ACHN (Renal cancer) = assay: NCI-60 screen (SRB, 48 h); settings: Homo sapiens
SN12C (Renal cancer) = assay: NCI-60 screen (SRB, 48 h); settings: Homo sapiens
MCF7 (Breast cancer) = assay: NCI-60 screen (SRB, 48 h); settings: Homo sapiens
[4] = test system: MDA-MB-31/ATCC (Breast cancer); assay: NCI-60 screen (SRB, 48 h); settings: Homo sapiens

## CC1(C)CC[C@]23CC[C@]4(C)[C@H](CC[C@@H]5[C@@]6(C)CCCNC(C)(C)[C@@H]6CC[C@]54C)[C@H]2[C@H]1OC3 [Compound 7, Azepanoallobetulin]
[1]
  EC50: n.s.
CNS cancer subpanel; 48 h, read-out: TGI MG_MID
  IC (TGI): 3.51 µM
CNS cancer subpanel; read-out: GI50 MG_MID
  GI50: 1.58 µM
CNS cancer subpanel; read-out: LC50 MG_MID
  CC50: 10.2 µM
Melanoma subpanel; 48 h, read-out: TGI MG_MID
  IC (TGI): 3.37 µM
Melanoma subpanel; read-out: GI50 MG_MID
  GI50: 1.76 µM
Melanoma subpanel; read-out: LC50 MG_MID
  CC50: 6.52 µM
HOP-92 (NSC lung cancer); HOP-92
  GI50: 1.41 µM
HOP-92 (NSC lung cancer); HOP-92, 48 h, read-out: TGI
  IC (TGI): 2.96 µM
[2]; NCI-H226
  GI50: 1.7 µM
[2]; NCI-H226, 48 h, read-out: TGI
  IC (TGI): 3.47 µM
[2]; NCI-H226, read-out: LC50
  CC50: 7.09 µM
[3]
  GI50: 1.64 µM
[3]; 48 h, read-out: TGI
  IC (TGI): 3.03 µM
[3]; read-out: LC50
  CC50: 5.6 µM
COLO 205 (Colon cancer); COLO 205
  GI50: 1.28 µM
COLO 205 (Colon cancer); COLO 205, 48 h, read-out: TGI
  IC (TGI): 2.68 µM
COLO 205 (Colon cancer); COLO 205, read-out: LC50
  CC50: 5.61 µM
HCC-2998 (Colon cancer); HCC 2998
  GI50: 1.54 µM
HCC-2998 (Colon cancer); HCC 2998, 48 h, read-out: TGI
  IC (TGI): 2.97 µM
HCC-2998 (Colon cancer); HCC 2998, read-out: LC50
  CC50: 5.72 µM
HCT-116 (Colon cancer); HCT-116
  GI50: 1.52 µM
HCT-116 (Colon cancer); HCT-116, 48 h, read-out: Growth % of the Most Sensitive Cell Lines
  activity at 10 µM: -99.4%
HCT-116 (Colon cancer); HCT-116, 48 h, read-out: TGI
  IC (TGI): 2.88 µM
HCT-116 (Colon cancer); HCT-116, read-out: LC50
  CC50: 5.47 µM
HCT-15 (Colon cancer); HCT-15
  GI50: 1.31 µM
HCT-15 (Colon cancer); HCT-15, 48 h, read-out: TGI
  IC (TGI): 2.68 µM
HCT-15 (Colon cancer); HCT-15, read-out: LC50
  CC50: 5.47 µM
SW-620 (Colon cancer); SW-620
  GI50: 1.75 µM
SW-620 (Colon cancer); SW-620, 48 h, read-out: TGI
  IC (TGI): 3.49 µM
SW-620 (Colon cancer); SW-620, read-out: LC50
  CC50: 6.95 µM
SF-295 (CNS cancer); SF-295
  GI50: 1.7 µM
SF-295 (CNS cancer); SF-295, 48 h, read-out: TGI
  IC (TGI): 3.19 µM
SF-295 (CNS cancer); SF-295, read-out: LC50
  CC50: 5.99 µM
SNB-19 (CNS cancer); SNB-19
  GI50: 1.85 µM
SNB-19 (CNS cancer); SNB-19, 48 h, read-out: TGI
  IC (TGI): 3.35 µM
SNB-19 (CNS cancer); SNB-19, read-out: LC50
  CC50: 6.07 µM
SNB-75 (CNS cancer); SNB-75
  GI50: 1.5 µM
SNB-75 (CNS cancer); SNB-75, 48 h, read-out: TGI
  IC (TGI): 2.94 µM
SNB-75 (CNS cancer); SNB-75, read-out: LC50
  CC50: 5.76 µM
MALME-3M (Melanoma)
  GI50: 1.79 µM
MALME-3M (Melanoma); 48 h, read-out: TGI
  IC (TGI): 3.47 µM
MALME-3M (Melanoma); read-out: LC50
  CC50: 6.72 µM
M14 (Melanoma); M14
  GI50: 1.77 µM
M14 (Melanoma); M14, 48 h, read-out: TGI
  IC (TGI): 3.31 µM
M14 (Melanoma); M14, read-out: LC50
  CC50: 6.19 µM
UACC-257 (Melanoma); UACC-257
  GI50: 1.92 µM
UACC-257 (Melanoma); UACC-257, 48 h, read-out: TGI
  IC (TGI): 3.89 µM
UACC-257 (Melanoma); UACC-257, read-out: LC50
  CC50: 7.77 µM
OVCAR-5 (Ovarian cancer); OVCAR-5
  GI50: 1.6 µM
OVCAR-5 (Ovarian cancer); OVCAR-5, 48 h, read-out: TGI
  IC (TGI): 3.04 µM
OVCAR-5 (Ovarian cancer); OVCAR-5, read-out: LC50
  CC50: 5.8 µM
A498 (Renal cancer); A498
  GI50: 1.68 µM
A498 (Renal cancer); A498, 48 h, read-out: TGI
  IC (TGI): 3.67 µM
A498 (Renal cancer); A498, read-out: LC50
  CC50: 8 µM
ACHN (Renal cancer)
  GI50: 1.71 µM
ACHN (Renal cancer); 48 h, read-out: TGI
  IC (TGI): 3.08 µM
ACHN (Renal cancer); read-out: LC50
  CC50: 5.55 µM
SN12C (Renal cancer)
  GI50: 1.68 µM
SN12C (Renal cancer); 48 h, read-out: TGI
  IC (TGI): 3.2 µM
SN12C (Renal cancer); read-out: LC50
  CC50: 6.1 µM
MCF7 (Breast cancer); MCF7
  GI50: 1.44 µM
MCF7 (Breast cancer); MCF7, 48 h, read-out: TGI
  IC (TGI): 3.01 µM
MCF7 (Breast cancer); MCF7, read-out: LC50
  CC50: 6.3 µM
[4]
  GI50: 1.66 µM
[4]; 48 h, read-out: TGI
  IC (TGI): 3.2 µM
[4]; read-out: LC50
  CC50: 6.17 µM
